From ChEMBL document CHEMBL6078649, “Discovery of Chalcone Derivatives as Bifunctional Molecules with Anti-SARS-CoV-2 and Anti-inflammatory Activities” (J Nat Prod, 2024) come the findings set out here.

Each structure is given as a SMILES string. pEC50: −log10 of the molar value.

For the assay, the system named is SARS-CoV-2. Briefly: Antiviral activity against SARS-CoV-2 infected in human Huh-7 cells harboring viral replicon/EGFP/Neo genes assessed as inhibition of EGFP expression incubated for 24 hrs. The format is functional, organism-based. The settings on record: Severe acute respiratory syndrome coronavirus 2, Huh-7, 24 h.
The pEC50 is the negative decadic logarithm of the EC50, by convention in mol/L. In the case of `CC(=O)Oc1c(Cl)c(/C=C/C(=O)c2ccc(F)cc2)c(Cl)c(OC(C)=O)c1OC(C)=O`, the pEC50 was 4.39.

Turning to `O=C(/C=C/c1c(Cl)c(O)c(O)c(O)c1Cl)c1ccc(F)cc1`, the negative logarithm of the EC50 (pEC50) was 4.70.

As to `O=C(/C=C/c1cc(O)c(O)c(O)c1)c1ccc(F)cc1`, the pEC50 was 4.93.

As for `O=C(CCc1cc(O)c(O)c(O)c1)c1ccc(F)cc1`, the negative-log EC50 (pEC50) was 4.49.
